In paper doi:10.1101/454710v1 (biorxiv, 2018):

What was measured:
Assay in all cases: whole-cell patch clamp
Type in all cases: cell-based
Settings in all cases: agonist; pH 7.4
[1] = system: homomeric α3 GlyR
[2] = system: heteromeric α2β GlyR
[3] = system: homomeric α2 GlyR
[4] = system: heteromeric α3β GlyR

EC50 [1]: 166 µM
EC50 [2]: 91 µM
EC50 [3]: 99 µM
EC50 [4]: 395 µM
SMILES: NCC(=O)O [glycine]
